# Measurements reported in publication PMC9848270, “Synthesis and biological assessment of indole derivatives containing penta-heterocycles scaffold as novel anticancer agents towards A549 and K562 cells” (Journal of Enzyme Inhibition and Medicinal Chemistry, 2023).
# What was measured:
# [1] = tested on: normal cell line (HEK293); experiment: MTT cytotoxicity, normal cell line HEK293; assay type: cell-based, human; conditions: Homo sapiens, HEK293; 10 μM; read-out: Inhibition rate, HEK293
# [2] = MTT cytotoxicity, normal cell line HEK293; assay type: cell-based, human; conditions: human, HEK293 cells (normal cell line); MTT assay, 48 h; normal cell line; CC50; read-out: In vitro cytotoxicity IC50, HEK293
# [3] = tested on: human prostate cancer cells (PC-3); experiment: MTT antiproliferative assay, PC-3; assay type: cell-based; conditions: Homo sapiens; for IC50: 48 h, MTT assay, read-out: In vitro cytotoxicity IC50, PC-3; for inhibition at 10 µM: read-out: Inhibition rate, PC-3
# Description: (§1) A549, PC-3, HepG2 and K562 cells were purchased from the Kunming cell bank of the Chinese academy of sciences. All cell lines were cultured in DMEM or RPMI 1640 complete medium. Logarithmic growth cells were cultured in 96-well plates at a concentration of 10^4 cells per well and pre-cultured for 24 h before adding test compounds. The MTT test with 5-Fluorouracil and Gefitinib as reference compounds were used to evaluate antiproliferative activity of target compounds in four human cancer line cells. For the estimation of the inhibition concentration (IC50), the Graph Pad Prism (GraphPad Software, San Diego, CA) was used.
# [4] = tested on: human chronic myeloid leukaemia cells (K562); experiment: MTT antiproliferative assay, K562; assay type: cell-based; conditions: for inhibition at 10 µM: K562, 10 μM, read-out: Inhibition rate, K562; for IC50: K562, 48 h, MTT assay, 48 h, read-out: In vitro cytotoxicity IC50, K562
# Description: as §1
# [5] = tested on: human liver cancer cells (HepG2); experiment: MTT antiproliferative assay, HepG2; assay type: cell-based; conditions: for inhibition at 10 µM: read-out: Inhibition rate, HepG2; for IC50: MTT assay, 48 h, read-out: In vitro cytotoxicity IC50, HepG2
# Description: as §1
# [6] = tested on: human non-small cell lung cancer cells (A549); experiment: MTT antiproliferative assay, A549; assay type: cell-based; conditions: for inhibition at 10 µM: A549, 10 μM, read-out: Inhibition rate, A549; for IC50: A549, 48 h, MTT assay, 48 h, read-out: In vitro cytotoxicity IC50, A549
# Description: as §1
SMILES,inhibition at 10 µM [1] [%],IC50 at 48 h [2] [µM],IC50 [3] [µM],inhibition at 10 µM [3] [%],melting point [°C],inhibition at 10 µM [4] [%],IC50 [4] [µM],inhibition at 10 µM [5] [%],IC50 [5] [µM],inhibition at 10 µM [6] [%],IC50 [6] [µM]
"Nn1c(SCC(=O)Nc2cc(-c3c[nH]c4ccccc34)n[nH]2)nnc1-c1ccccc1 [Compound 11k, N-(3-(1H-indol-3-yl)-1H-pyrazol-5-yl)-2-((4-amino-5-phenyl-4H-1,2,4-triazol-3-yl)thio)acetamide]",0.497 ± 5.03,23.6 ± 4.14,25.4 ± 2.77,23.1 ± 3.99,> 300,19.2 ± 3.55,39.7 ± 7.96,11.1 ± 0.757,73.1 ± 8.07,23.2 ± 0.539,23.9 ± 3.08
"Nn1c(SCC(=O)Nc2cc(-c3c[nH]c4ccccc34)n[nH]2)nnc1-c1ccccc1O [Compound 11q, N-(3-(1H-indol-3-yl)-1H-pyrazol-5-yl)-2-((4-amino-5–(2-hydroxyphenyl)-4H-1,2,4-triazol-3-yl)thio)acetamide]",99.3 ± 0.02,2.66 ± 1.29,2.89 ± 0.15,86.3 ± 0.332,263 to 266,99.2 ± 1.2,2.34 ± 0.34,84.7 ± 11.4,8.23 ± 7.58,89.4 ± 2.21,4.14 ± 1.71
"Nn1c(SCC(=O)Nc2cc(-c3c[nH]c4ccccc34)n[nH]2)nnc1-c1ccccc1Br [Compound 11c, N-(3-(1H-indol-3-yl)-1H-pyrazol-5-yl)-2-((4-amino-5–(2-bromophenyl)-4H-1,2,4-triazol-3-yl)thio)acetamide]",1.73 ± 2.31,75.4 ± 2.35,60.8 ± 4.73,12.3 ± 2.04,194 to 195,14.9 ± 1.32,43.4 ± 1.96,10.4 ± 1.73,74.7 ± 13.4,10.5 ± 0.521,67.7 ± 1.35
"Nn1c(SCC(=O)Nc2cc(-c3c[nH]c4ccccc34)n[nH]2)nnc1-c1ccc(Br)cc1 [Compound 11m, N-(3-(1H-indol-3-yl)-1H-pyrazol-5-yl)-2-((4-amino-5–(4-bromophenyl)-4H-1,2,4-triazol-3-yl)thio)acetamide]",54.2 ± 5.97,5.81 ± 0.88,21.3 ± 2.75,32.8 ± 6.5,270 to 272,98.5 ± 0.434,2.57 ± 0.43,60.9 ± 7.02,10.7 ± 5.21,71.7 ± 5.61,5.81 ± 0.69
"Nn1c(Cc2ccc(Cl)cc2)nnc1SCC(=O)Nc1cc(-c2c[nH]c3ccccc23)n[nH]1 [Compound 11d, N-(3-(1H-indol-3-yl)-1H-pyrazol-5-yl)-2-((4-amino-5–(4-chlorobenzyl)-4H-1,2,4-triazol-3-yl)thio)acetamide]",63.4 ± 7.49,11.6 ± 0.87,8.42 ± 0.56,56.2 ± 9.24,240 to 241,95.4 ± 0.809,3.51 ± 1.05,16.3 ± 2.1,49.6 ± 10.2,87.4 ± 12.5,4.79 ± 0.21
"Nn1c(SCC(=O)Nc2cc(-c3c[nH]c4ccccc34)n[nH]2)nnc1-c1ccc(F)cc1 [Compound 11p, N-(3-(1H-indol-3-yl)-1H-pyrazol-5-yl)-2-((4-amino-5–(4-fluorophenyl)-4H-1,2,4-triazol-3-yl)thio)acetamide]",5.33 ± 14.9,28.9 ± 0.52,33.3 ± 5.94,17.1 ± 1.22,209 to 212,11.7 ± 0.639,33.2 ± 4.95,22.8 ± 2.22,19.3 ± 6.15,23.9 ± 3.03,93.9 ± 7.47
"Nn1c(SCC(=O)Nc2cc(-c3c[nH]c4ccccc34)n[nH]2)nnc1-c1ccccc1Cl [Compound 11j, N-(3-(1H-indol-3-yl)-1H-pyrazol-5-yl)-2-((4-amino-5–(2-chlorophenyl)-4H-1,2,4-triazol-3-yl)thio)acetamide]",10.9 ± 7.59,63 ± 0.87,34.4 ± 2.57,17.8 ± 2.85,136 to 138,14.3 ± 0.525,42.4 ± 3.6,14.4 ± 0.686,50.6 ± 4.69,13.7 ± 1.49,56.8 ± 5.27
